Reference: US5658938A, “Substituted 1H-imidazoles” (U C B S.A., priority 1994, dated 1997)
Read-outs that look alike come from different tables or passages of the source.

Experiments:
α-adrenergic receptors = details: cited from earlier work
male NMRI mice = assay: Toxicity, Irwin's test; format: in vivo; details: intraperitoneal
Procedure: The toxicity of the compounds of the invention has been determined in male NMRI mice by means of Irwin's test (S. Irwin, Psychopharmacologia (Berl.), 13, (1968), 222-257).
Progressive doses of the product studied are administered intraperitoneally to groups of three mice until a lethal dose is reached (dose causing the death of two out of three animals in 48 hours). It follows from this Table that the compounds of the invention are not very toxic.

[1] = test system: presynaptic α2 -adrenergic receptors; assay: Inhibition of the contraction of the electrically stimulated guinea pig ileum (presynaptic α2-agonist activity); details: guinea pig ileum longitudinal muscle strips, electrical stimulation
Excerpt: Longitudinal muscle strips attached to an isometric strain gauge are suspended in Tyrode's solution and are stretched under a tension of 1 g (G. M. Drew, Brit. J. Pharmacol. 64, (1978), 293-300; M. Andrejak et al., Naunyn-Schmiedeberg's Arch. Pharmacol. 314, (1980), 83-87).
Electrical stimulation of the parasympathetic nerves associated with the ileum fragments causes a contraction of the muscle. This contraction is reduced in the presence of a presynaptic α2 -agonist and the magnitude by which the contraction is reduced depends on the concentration of the agonist used. This effect is antagonised by the simultaneous presence of an α2 -antagonist such as alpha-yohimbine.
The IC30 concentration (in mole/l) that reduces by 30% the intensity of the contraction of the muscle is determined.

[2] = test system: coronary occlusion in the rat; assay: Anti-ischemic and anti-hypertensive activity: coronary occlusion in the anesthetized rat (elevation of the T wave of the electrocardiogram, arterial pressure); format: in vivo, male albino rat of the Sprague-Dawley strain; details: Rattus norvegicus, iv
Excerpt: The cardiac anti-ischemic activity of compounds manifests itself by their capacity to oppose the elevation of the T wave of the electrocardiogram, induced by a coronary occlusion in the rat. Continuous monitoring of the arterial pressure also enables to reveal the anti-hypertensive effects. The animal used for the test is a male albino rat of the Sprague-Dawley strain, weighing 220 to 280 g. On the day of the experiment, the animal is anesthetized by intraperitoneal administration of pentobarbital (60 mg/kg), then placed under endotracheal intubation. A ligature system is fitted around the descending left anterior coronary artery according to the procedure of Johnston et el. (Can. J. Physiol. Pharmacol., 61 (1983), 1340-1353). After closing the thorax, three electrodes are arranged on the body of the animal ("V4" thoracic derivation), in order to continuously record the shape of the electrocardiogram signal (in particular the T wave). Catheters are introduced into the right carotid artery and the right jugular vein to measure the arterial pressure and to administer intravenously the compound tested or the vehicle solution. Four 45 second coronary occlusions are performed, separated by episodes of reperfusion of 30, 35 and 30 minutes respectively. The compound to be studied or the vehicle are administered intravenously in bolus, 30 minutes before occlusion 3. The T electrocardiographic signal and the arterial pressure are continuously measured during the entire experiment.
The effects of the compounds according to the invention are quantified by comparing the amplitude of the elevation of the T wave at occlusions 3 and 4 (that is 30 minutes and 60 minutes after administration) with its value at occlusion 2 (that is before administration).
the second column indicates the dose of compound administered, expressed in mole/kg;
the third and the fourth columns indicate the anti-ischemic effect caused by administering the compound tested. The anti-ischemic effect represents the reduction in the elevation of the T wave caused by coronary occlusions 3 and 4, expressed in % with respect to occlusion 2, before administration of the compound (ΔT3 and ΔT4 respectively);
the fifth and sixth columns indicate the anti-hypertensive effect caused by administration of the compound tested. The anti-hypertensive effect is expressed as the maximum lowering of arterial pressure, measured a) between 5 and 30 minutes, and b) between 30 and 60 minutes after intravenous injection of the compound tested (ΔPa and ΔPb respectively). This lowering is expressed in % with respect to the value measured before injection.

[3] = molecular target: T1, postsynaptic α1 -adrenergic receptor (Rattus norvegicus, UniProt P23944); assay: Postsynaptic α1-antagonist activity: inhibition of norepinephrine-induced contraction of the isolated aorta of the rat; details: read-out: ED30 (concentration which causes 30% inhibition of the contraction induced by norepinephrine)
T1 construct: isolated aorta of the rat; from tissue; host or cells: rat isolated aorta
T1 sequence (P23944 1-561): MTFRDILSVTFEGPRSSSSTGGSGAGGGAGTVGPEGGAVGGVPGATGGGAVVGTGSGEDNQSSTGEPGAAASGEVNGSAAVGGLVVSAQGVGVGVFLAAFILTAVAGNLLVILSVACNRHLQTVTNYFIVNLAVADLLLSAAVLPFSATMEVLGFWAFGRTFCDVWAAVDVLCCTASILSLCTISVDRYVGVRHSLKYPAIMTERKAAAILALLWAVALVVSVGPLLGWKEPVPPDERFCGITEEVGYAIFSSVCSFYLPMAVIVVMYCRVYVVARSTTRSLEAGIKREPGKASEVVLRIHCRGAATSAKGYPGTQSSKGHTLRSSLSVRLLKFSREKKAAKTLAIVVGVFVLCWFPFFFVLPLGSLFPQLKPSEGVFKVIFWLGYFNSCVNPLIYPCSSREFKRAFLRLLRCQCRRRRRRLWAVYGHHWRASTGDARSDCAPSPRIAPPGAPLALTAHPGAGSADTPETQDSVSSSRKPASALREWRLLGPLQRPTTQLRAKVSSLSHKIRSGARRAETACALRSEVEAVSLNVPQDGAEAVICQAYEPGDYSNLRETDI
Procedure: A non selective α-agonist substance such as norepinephrine induces a sustained contraction of the isolated aorta of the rat (J. M. Van Rossum Arch. Int. Pharmacodyn. 143, (1963), 299-330). This contraction can be inhibited by α1 -adrenergic blocking substances such as prazosin. In this test, a control contraction is carried out with norepinephrine at 3.2×10^-8 mole/l. After washing and stabilizing the preparation, the compound to be tested is added to the bath. Norepinephrine is added 5 minutes after the compound tested, and inhibition of the contraction induced by norepinephrine is measured. Next, inhibition of the contraction induced by norepinephrine is evaluated a second and third time in the presence of increasing concentrations of the compound tested.

[4] = 0.5 h, read-out: ΔPa (maximum lowering of arterial pressure)
[5] = 0.5 h, read-out: ΔT3 (anti-ischemic effect: change in elevation of the T wave, occlusion 3 vs occlusion 2)
[6] = 1 h, read-out: ΔPb (maximum lowering of arterial pressure)
[7] = 1 h, read-out: ΔT4 (anti-ischemic effect: change in elevation of the T wave, occlusion 4 vs occlusion 2)

CC1(c2c[nH]cn2)CCCc2ccccc21 (stereo not shown) [4-(1,2,3,4-tetrahydro-1-methyl-1-naphthalenyl)-1H-imidazole]
affinity towards α-adrenergic receptors, in words (α-adrenergic receptors): slight affinity

COc1ccc2c(c1)CCCC2c1c[nH]cn1 (single isomer, unassigned; (+)) [Compound A, (+)-4-(1,2,3,4-tetrahydro-6-methoxy-1-naphthalenyl)-1H-imidazole]
Lethal dose (dose causing the death of two out of three animals in 48 hours) (male NMRI mice): 228.3 mg/kg
IC30 (concentration that reduces by 30% the intensity of the contraction of the muscle) [1]: 30 nM
change in vivo at 3 µmol/kg [2, 4]: -32%
change in vivo at 3 µmol/kg [2, 5]: -80%
change in vivo at 3 µmol/kg [2, 6]: -28%
change in vivo at 3 µmol/kg [2, 7]: -33%
IC30 [3]: 21 nM

COc1cc2c(cc1OC)C(c1c[nH]cn1)CCC2 (stereo not shown) [Compound J, 4-(1,2,3,4-tetrahydro-6,7-dimethoxy-1-naphthalenyl)-1H-imidazole]
Lethal dose (dose causing the death of two out of three animals in 48 hours) (male NMRI mice): 258.3 mg/kg
IC30 (concentration that reduces by 30% the intensity of the contraction of the muscle) [1]: 130 nM
change in vivo at 1 µmol/kg [2, 4]: -23%
change in vivo at 1 µmol/kg [2, 5]: -31%
change in vivo at 1 µmol/kg [2, 6]: -16%
change in vivo at 1 µmol/kg [2, 7]: -29%
IC30 [3]: 2900 nM

Cc1cccc2c1CCCC2c1c[nH]cn1 (stereo not shown) [Compound B, 4-(1,2,3,4-tetrahydro-5-methyl-1-naphthalenyl)-1H-imidazole]
Lethal dose (dose causing the death of two out of three animals in 48 hours) (male NMRI mice): > 67.9 mg/kg
IC30 (concentration that reduces by 30% the intensity of the contraction of the muscle) [1]: 0.88 nM
change in vivo at 3 µmol/kg [2, 4]: -33%
change in vivo at 3 µmol/kg [2, 5]: -48%
change in vivo at 3 µmol/kg [2, 6]: -16%
change in vivo at 3 µmol/kg [2, 7]: -29%
IC30 [3]: 33 nM
